Laboratory results published in patent publication US7511173B2, “Creatine salt with enhanced nutritional and therapeutic efficacy and compositions containing same” (Iovate T & P Inc., priority 2004, dated 2009).

Key:
Type in all cases: physicochemical
hygroscopicity = test: hygroscopicity
pH of aqueous solution = settings: c = 1% in water
[1] = stability in aqueous solution (titer, degradation into creatinine); settings: solution of about 15 mg/ml (1.5%), after 10 days at room temperature

With `CN(CC(=O)O)C(=N)N.NCC(=O)O` [creatine glycinate] as the molecule, how does the hygroscopicity (hygroscopicity) read?
Its hygroscopicity is “non-hygroscopic”.

What about the pH (pH of aqueous solution) of the same molecule?
The pH was 6; c = 1% in water.

For citrate, which “titer drop in aqueous solution” value [1] is on record?
The value was “about 50%”.
